Results on one molecule are retold here after article PMC9231138, “Dihydrotanshinone I Enhances Cell Adhesion and Inhibits Cell Migration in Osteosarcoma U−2 OS Cells through CD44 and Chemokine Signaling” (Molecules, 2022).

As a reminder, the IC50 is the midpoint of a concentration-inhibition curve.

One assay relates to U−2 OS cells. Nature of the assay: MTT cell proliferation assay, U−2 OS cells. The settings on record: Homo sapiens, U2OS. In kind it is cell-based. On the procedure:
(§1) The effects of tanshinones (DS−1 to DS−5) on the proliferation of U−2 OS cells, HeLa cells, and NRK−49F cells were measured by the classical MTT method with minor modifications as follows. Cells were seeded at 5000 per well in 96-well plates, with each group being repeated in 5 wells, and were incubated for 12 h. DS−1 to DS−5 were added at gradient concentrations, then incubated for 24 and 48 h, respectively. Then, 20 μL MTT solution (solved in PBS, 5 mg/mL) was added to every well, and the cells were further incubated at 37 °C for 4 h until a purple precipitate was visible. The plate was centrifuged at 1000 rpm for 1 min; the supernatant was suctioned, and 150 μL of DMSO was added per well; the plate was shaken on a shaker protected from light for 15 min. We placed the plate in an enzyme marker and measured the absorbance values at a 490 nm wavelength.
On the technique in general: Tetrazolium dyes change colour on reduction, which living cells bring about.

The test system of the next assay is NRK−49F cells. Nature of the assay: MTT cell proliferation assay, NRK−49F cells. In kind it is cell-based, rat. The settings on record: Rattus norvegicus, 24 h, read-out: IC50 NRK−49F cells (24 h). The procedure: as §1
The test system of a further assay is FASN. Nature of the assay: RT-PCR FASN mRNA in U−2 OS cells. In kind it is cell-based, human. As to conditions: 24 h. On the procedure:
(§2) Total RNA within cells was extracted by the RNAeasy™ Animal Long RNA Isolation Kit with Spin Column (Shanghai, Beyotime); the concentrations and OD260/OD280 and OD230/OD260 values were measured by NanoDrop. Five micrograms of RNA was used for reverse transcription; each sample was diluted to 16 μL, and 4 μL of synthesized premix solution (5×) was added, then the mixtures were placed in a 42 °C water bath for 10 min, then an 80 °C water bath for 10 min to deactivate reverse transcriptase. After reverse transcription, each sample was diluted to 140 μL. PCR amplification was carried out by the ABI700 real-time PCR system, and the amplification reaction was detected with a SYBR probe. After PCR, actin and GAPDH were used as internal references, and the relative standard curve method (2^−ΔΔcT) determined the relative expression of mRNA.

The subject of assay [1] is CD44. In words: RNA-seq transcriptome, CD44 expression. In kind it is cell-based, human. The settings on record: DS−1 6.25 µM, 24 h. On the procedure:
Sample preparation: U−2 OS cells were seeded in a 10 cm culture dish, and we cultured them to the logarithmic growth phase, suctioned the previous medium, and added new medium with DS−1 at 0 and 6.25 μM; each group was repeated two times. After 24 h of culture, the dish was washed with PBS reagent 3 times. One milliliter of TRIzol reagent was added to every dish for cell lysate and then collected in centrifuge tubes.
Transcriptome sequencing and analysis were carried out by Novogene Bioinformatics Technology Co., Ltd. (Beijing, China).
Raw data in the fastq format were firstly processed through in-house Perl scripts. In this step, clean data were obtained by removing reads containing adapter or containing ploy-N and low-quality reads from raw data. […]
Reference genome and gene model annotation files were downloaded from the genome website directly. The index of the reference genome was built using Hisat2 v2.0.5 (https://github.com/DaehwanKimLab/hisat2, accessed on 4 May 2022), and paired-end clean reads were aligned to the reference genome using Hisat2 v2.0.5. FeatureCounts v1.5.0-p3 (https://github.com/byee4/featureCounts, accessed on 4 May 2022) was used to count the reads numbers mapped to each gene. Then the Fragments PerKilobase of transcript sequence per Millions […] (FPKMs) of each gene were calculated based on the length of the gene and reads’ count mapped to this gene. […]

The test system of assay [2] is CD44. In words: Western blot of 80 kDa and 70 kDa CD44. In kind it is cell-based, human. The settings on record: DS−1 2.5, 5.0, and 7.5 µM for 24 h. The procedure:
(§3) Sample preparation: U−2 OS cells seeded in 10 cm Petri dishes were collected and washed with ice-cold PBS and RIPA lysis buffer with PMAF; phosphatase inhibitor was added, and the tubes were placed on ice for 30 min and vortexed for 30 s at intervals of 10 min. The samples were centrifuged at 12,000 g at 4 °C for 15 min, and the supernatants were collected in new centrifuge tubes. The protein samples were placed on ice, and the concentration of each protein sample was measured by the BCA kit (Thermo). The protein concentration was adjusted to the same by milli Q ultrapure water.
(§4) Loading and running the gel: Equal amounts of protein were loaded into the wells of the 10% SDS-PAGE gel, along with molecular weight markers, and 15 μg of total protein from the cell lysate was loaded. We then ran the gel for 45 min at 200 V.
(§5) Transferring the protein: We prepared the transfer stack as follows: negative plate, sponge, filter paper, gel, PVDF membrane, filter paper, sponge, and positive plate. The transfer was for 90 min at 200 mA.
(§6) Antibody staining: We blocked the membrane for 1 h at room temperature using 5% blocking solution, then incubated the membrane with appropriate dilutions of the primary antibody in the blocking solution overnight at 4 °C. […] Images were acquired using darkroom development techniques for chemiluminescence and analyzed by Image J.
(Immunoblotting shows a protein as a band on a membrane.)

In the next assay the test system is CXCL8. Nature of the assay: RT-PCR CXCL8 mRNA in U−2 OS cells. The settings on record: 24 h. In kind it is cell-based, human. On the procedure: as §2
A further assay deals with AKT. In words: Western blot AKT. The settings on record: DS−1 2.5, 5.0, and 7.5 µM, 24 h. In kind it is cell-based, human. The procedure: as §3, §4, §5, §6
For a further assay, the system named is STAT3. In words: Western blot STAT3. The settings on record: DS−1 2.5, 5.0, and 7.5 µM, 24 h. In kind it is cell-based, human. On the procedure: as §3, §4, §5, §6
The next assay deals with p53. Nature of the assay: Western blot p53. In kind it is cell-based, human. The settings on record: DS−1 2.5, 5.0, and 7.5 µM, 24 h. On the procedure:
as §3, §4, §5, §6

SMILES strings stand for the structures. Read-outs that look alike come from different tables or passages of the source.

For the molecule `Cc1cccc2c3c(ccc12)C1=C(C(=O)C3=O)[C@@H](C)CO1` [DS−1, 15,16-Dihydrotanshinone I], the IC50 in the assay with U−2 OS cells (24 h, read-out: IC50 U−2 OS cells (24 h)) is 3.83 ± 0.49 µM; with U−2 OS cells (48 h, read-out: IC50 U−2 OS cells (48 h)), 1.99 ± 0.37 µM; with NRK−49F cells, 25 ± 1.98 µM. The “FASN mRNA, fold of the control group” value is given as 0.59 ± 0.14 fold in the assay with FASN (DS−1 2.5 µM), 0.51 ± 0.07 fold in the assay with FASN (DS−1 5.0 µM) and 0.26 ± 0.01 fold in the assay with FASN (DS−1 7.5 µM). The “upregulation of CD44 in transcriptome” value in the assay on CD44 [1] was 2.94 ± 0.55 fold. Moreover, the “70 kDa CD44 protein” value in the assay with CD44 [2] is “decreased”. In addition, in the assay on CD44 [2], the “80 kDa CD44 protein” value is “significantly increased”. Moreover, the “CXCL8 mRNA, fold” value in the assay on CXCL8 (DS−1 2.5 µM) amounted to 1.49 ± 0.10 fold; in the assay on CXCL8 (DS−1 5.0 µM) it was 3.34 ± 0.49 fold; in the assay on CXCL8 (DS−1 7.5 µM) it was 3.71 ± 0.53 fold. Moreover, in the assay with AKT, the “expression of AKT” value is on record as “no significant change”. Moreover, the “total protein content of STAT3” value in the assay on STAT3 was “did not change significantly”. For the same molecule, in the assay on p53, the “level of p53” value is reported as “significantly increased”.
